Experimental data taken from US5773459A, “Urea- and thiourea-type compounds” (Sugen, Inc., priority 1995, dated 1998).
Where two headings read alike, the source gives them in different places.

Tested on: 3T3/IGF-1R cells
Test: IGF-1 Receptor Growth Assay (3T3/IGF-1R cells, SRB)
Assay type: cell-based
Description: Sulforhodamine B (SRB) Assay for Adherent Cells
Sulforhodamine B assays for measuring effects of TBST compounds on cell growth were based on procedures described by Skehan et al. J. Natl. Cancer Inst. 82:1107, 1990 incorporated herein by reference in its entirety, including any drawings. Unless otherwise stated the assays were carried out aseptically as follows:
IGF-1 Receptor Growth Assay
Cell lines: 3T3/IGF-1 R (10% FBS/2 mM glutamine/DMEM) NIH 3T3 c7 (10% calf serum/2 mM glutamine/DMEM) NOTE: NIH 3T3 cells (and cells derived from them) should never be allowed to become confluent because this increases the chance of spontaneous transformation. If they show signs of being transformed (morphological changes, piling up, moving into clumps), throw them away and thaw a fresh batch.
Materials: 10% FBS/2 mM glutamine/DMEM 0.5% FBS/2 mM glutamine/DMEM 10% calf serum/2 mM glutamine/DMEM IGF-1, 5 μM in sterile PBS (Promega/Fisher cat. #G5111) DMSO, tissue culture grade (Sigma cat. #D 2650) Hits from screen 11, 100 mM in DMSO 96-well plates, flat and round bottom 8 channel pipettor and sterile tips sterile reagent reservoirs sterile tubes (1.5 or 15 ml)
Methods (carry all steps out under asceptic conditions until fixing the cells for the SRB assay):
Day 0: Cell Plating--Trypsinize and count 3T3/IGF-1R and NIH 3T3 c7 cells. Dilute in growth media to 2000 cells/200 μl and seed flat bottom 96-well plates with 200 μl/well, one plate for two compounds for each cell line.
Day 1: Compound preparation--Add DMSO to each compound to make 100 mM stock solutions.
Aliquot each compound to 3-4 sterile screw cap tubes and store at -20° C. After thawing, make sure the compound has gone completely back into solution. Throw away after 3 freeze/thaws.
3T3/IGF-1R cells--For each 96-well plate, make 15 ml of 10 nM IGF-1/0.5% FBS/2 mM glutamine/DMEM (30 μl of 5 μM IGF-1/15 ml).
Aliquot 1.5 ml 10 nM IGF-1/0.5% FBS to a sterile tube for each compound to be tested (the first time a compound is tested, use a 15 ml tube in case it is necessary to add extra medium to get it into solution).
Add 3 μl of 100 mM stock of each compound to a tube so 200 μM final. Shake or vortex until it goes into solution. If it is necessary to add additional medium, note the final concentration.
For the DMSO control, prepare 0.5 ml/plate of 0.2% DMSO/10 nM IGF-1/0.5% FBS (2 μl DMSO/ml).
For every two compounds, aliquot 130 μl 10 nM IGF-1/0.5% FBS to wells in columns 2-11 of a 96-well round bottom plate.
Add 260 μl of each compound to four wells in column 12.
Do 2-fold dilutions (130 μl) from columns 12 to 3 on each plate (column 2 will be for the untreated control), mixing thoroughly.
Remove medium from 3T3/IGF-1 R cells, one plate at a time. […]

[1] = read-out: GROWTH DATA: 3T3/IGF1R-0.5% FBS
[2] = read-out: GROWTH DATA: 3T3/IGF1R-10% FBS

CC(C)S(=O)(=O)c1csc(NC(=O)Nc2cc(C(F)(F)F)cc(C(F)(F)F)c2)c1Cl [Example Z2, N-[3-Chloro-4-(isopropylsulfonyl)thien-2-yl]-N'-(3,5-di-trifluoromethylphenyl)urea]
IC50 [1]: 0.7 µM
IC50 [2]: 20 µM

O=C(Nc1ccc(SC(F)(F)F)cc1)Nc1ccc(Oc2ccc(Cl)cc2Cl)nc1 [Example Z3]
IC50 [1]: 0.6 µM
IC50 [2]: 18 µM
